The results in this text go back to patent US20040175737A1, “Assay for RNase H activity” (Wyeth, priority 2002, published 2004).

For the series, the target named is T1, HIV RT RNase H (Human immunodeficiency virus type 1 group M subtype B, UniProt P04585).
T1 construct: HIV p66/p51 heterodimer; purchased Enzyco, Inc. (Replidyne Inc., Louisville Colo.)
The series is described as follows: PAGE-based endpoint assay for HIV RT RNase H activity, titrated with single stranded RNA or DNA contaminants. The class given is biochemical. The settings on record: 5, 10 and 50 pmol RNA; molar ratios to RNA-DNA hybrid substrate 1:1, 2:1 and 10:1; 1 U HIV RT enzyme; 37° C. The source says:
RNase H. Samples of HIV p66/p51 heterodimer were obtained from Enzyco, Inc. (Replidyne Inc., Louisville Colo.) Methods for the recombinant expression, purification and characterization of this enzyme have been previously described (Thimmig & McHenry, J. Biol. Chem. 1993, 268:16528-16536). Purity of the enzyme samples was verified on polyacrylamide gels. […] Samples of E. coli RNase H1 were purchased from EPICENTR (Madison, Wis.).
Radiolabled RNA was generated by incorporating ^33P-ATP in the T7 RNA polymerase reaction, and annealed to an unlabeled ssDNA 49mer having the nucleotide sequence set forth in SEQ ID NO:2 (shown below). In an alternative version of these experiments, the complementary DNA oligonucleotide (SEQ ID NO:2) was radiolabeled with ^33P at the 5′ end by T4 PNK, and annealed to the unlabeled 29mer ssRNA (SEQ ID NO: 1).
Time dependent RNA degradation by RNase H. Aliquots containing 0.5 pmol of the radio-labeled DNA-RNA substrate ([…]) were incubated in Tris buffer (pH 8) with 10 mM MgCl2, KCl (between 0 and 30 mM), 3% glycerol, 0.2% NP-40, 50 μg/ml BSA and 1 mM DTT. […] The reaction products were analyzed by PAGE. […]

For the substance “homopolymeric U: homopolymeric polyU, 5′-(U)n-3′, n ≈ 500 to 1000, SEQ ID NO:4”, the “inhibition of HIV RT RNase H activity (measured amount of end-labeled ssDNA after reaction)” value is “did not inhibit”.
The same measure for “homopolymeric A: homopolymeric polyA, 5′-(A)n-3′, n ≈ 500 to 1000, SEQ ID NO:3”: “did not inhibit”.
